# Test results as given in patent EP0838471A1, “PEPTIDE DERIVATIVES AND ANGIOTENSIN IV RECEPTOR AGONIST” (SAGAMI CHEMICAL RESEARCH CENTER, priority 1995, dated 1997).
# Where a name gives a salt, the structure may show the parent alone.
# Molecular target: T1, angiotensin IV receptor (Cavia porcellus, UniProt H0VNM7)
# T1 sequence (H0VNM7 1-1025): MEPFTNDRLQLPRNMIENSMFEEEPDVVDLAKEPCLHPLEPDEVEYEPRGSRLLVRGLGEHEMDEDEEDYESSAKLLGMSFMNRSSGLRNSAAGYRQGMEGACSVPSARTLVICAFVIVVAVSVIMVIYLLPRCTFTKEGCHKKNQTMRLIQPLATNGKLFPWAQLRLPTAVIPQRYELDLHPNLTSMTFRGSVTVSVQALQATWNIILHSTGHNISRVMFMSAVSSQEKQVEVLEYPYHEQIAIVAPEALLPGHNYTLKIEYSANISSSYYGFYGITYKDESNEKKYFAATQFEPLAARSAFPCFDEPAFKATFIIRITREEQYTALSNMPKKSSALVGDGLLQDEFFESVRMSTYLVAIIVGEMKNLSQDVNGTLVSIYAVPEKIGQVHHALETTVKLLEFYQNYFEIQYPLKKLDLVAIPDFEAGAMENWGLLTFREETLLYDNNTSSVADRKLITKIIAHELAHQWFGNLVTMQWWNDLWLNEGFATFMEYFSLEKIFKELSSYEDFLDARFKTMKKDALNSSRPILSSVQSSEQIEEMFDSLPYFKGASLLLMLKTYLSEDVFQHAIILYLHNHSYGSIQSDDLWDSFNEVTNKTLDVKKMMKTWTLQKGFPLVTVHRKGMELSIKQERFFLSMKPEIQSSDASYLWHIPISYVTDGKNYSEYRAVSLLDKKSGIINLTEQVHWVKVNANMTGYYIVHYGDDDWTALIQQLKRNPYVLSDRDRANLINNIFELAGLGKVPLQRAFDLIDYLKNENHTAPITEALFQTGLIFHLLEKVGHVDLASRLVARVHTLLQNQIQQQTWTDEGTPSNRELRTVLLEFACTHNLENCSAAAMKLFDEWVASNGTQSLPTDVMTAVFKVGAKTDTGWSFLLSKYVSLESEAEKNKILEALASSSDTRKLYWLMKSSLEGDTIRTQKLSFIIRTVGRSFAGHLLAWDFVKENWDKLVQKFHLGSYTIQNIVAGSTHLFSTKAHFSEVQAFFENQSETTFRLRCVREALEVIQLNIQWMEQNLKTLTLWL
# Experiment: Binding to angiotensin IV receptor (125I-angiotensin IV displacement, crude membrane specimen)
# Conditions: Hartley guinea pig hippocampus membrane; 0.2 nM 125I-angiotensin IV; 37°C for 90 minutes; nonspecific bond with 1 µM angiotensin IV
# Method: The capability of binding to angiotensin IV receptor was measured by using Hartley guinea pig hippocampus in accordance with the method reported by Miller-Wing et al., J. Pharmacol. Exp. Therp., 266:1718 (1993).
# The Hartley guinea pig hippocampus was homogenized in a 50 mM Tris hydrochloride buffer solution (pH 7.4) containing 1 mM of ethylenediamine-N,N,N',N'-tetraacetic acid (EDTA) and 100 µm of phenylmethanesufonyl fluoride (PMSF). After centrifuging at 900 × g, the supernatant thus obtained was further centrifuged at 48,000 × g. The precipitate was washed once with the same buffer solution and then the precipitate was suspended in a 50 mM Tris hydrochloride buffer solution (pH 7.4) containing 150 mM of sodium chloride, 1 mM of EDTA, 100 µm of PMSF and 0.1% of bovine serum albumin (BSA) in such a manner as to give a protein concentration of 50 µg/ml to thereby give a crude membrane specimen.
# This membrane specimen was allowed to react with 0.2 nM ^125I-angiotensin IV and a test compound dissolved in dimethyl sulfoxide at 37°C for 90 minutes. Then ^125I-angiotensin IV binding to the membrane was filtered under suction onto GF/B filer paper with the use of a cell harvester for laboratory use. The radioactivity on the filter paper was measured with a gamma-counter. The nonspecific bond was measured in the presence of 1 µM of angiotensin IV and the specific bond was calculated by subtracting the nonspecific bond from the total bond. The capability (IC50) of the test compound of binding to angiotensin IV receptor was determined as the concentration of the test compound capable of inhibiting the binding at an extent of 50% from the inhibition curve obtained by reacting 0.2 nM ^125I-angiotensin IV with the test compound at various concentrations.
row,IC50 [µM],Molecule
1,0.0004,N'-[N-[L-2-amino-3-(ethylthio)propionyl]-L-tyrosyl]-N-(2-phenylethyl)-L-leucinamide hydrochloride [Example 18]
2,0.0242,"CCCC[C@H](N)C(=O)N[C@@H](Cc1ccc(O)cc1)C(=O)N[C@@H](CCc1ccc(C)cc1)[C@@H](C)CC [Example 61, (3S,4S)-N'-(L-norleucyl)-N-[4-methyl-1-(4-methylphenyl)-1-hexan-3-yl]-L-tyrosinamide hydrochloride]"
3,0.0265,"CC[C@H](C)[C@H](CCc1ccccc1)NC(=O)[C@H](Cc1ccc(O)cc1)NC(=O)[C@@H](N)C(C)C [Example 59, (3S,4S)-N'-(L-valyl)-N-(4-methyl-1-phenylhexan-3-yl)-L-tyrosinamide hydrochloride]"
4,0.0126,N'-[N-(L-norleucyl)-N^im-benzyl-L-histidyl]-N-(2-phenylethyl)-L-leucinamide dihydrochloride [Example 33]

row,Molecule,IC50 [µM]
1,L-valyl-L-tyrosyl-N-(4-pyridylmethyl)-L-isoleucinamide [Example 9],0.00599
